Measured values as given in a melting point compilation (Tetko et al.; mined from patent text by program, amines drawn as free bases though some values may be those of a salt).

Structure (SMILES) | melting point [°C]
CCc1cccc2c3c([nH]c12)C(CC)(CC(C)=O)OCC3 (stereo not given) | 154 to 155
O=C(NCc1cccnc1)Nc1ccc(S)cc1 | 155 to 159
CCCCCCCCCCCCCCCCCC(=O)C(=O)OCC | 43 to 44
OC1CSC(Oc2cc(F)ccc2-c2ccncc2)C(O)C1O (stereo not given) | 209
CC(=O)c1sc(N2CCN(Cc3cccc(C(F)(F)F)c3)C2=O)nc1C | 149 to 151
CCCCc1ccc(NC(=O)CCc2ccccc2)c(=O)n1CC(=O)O | 132 to 134
Cc1ccc(-c2nc3ccc(OCCN4CCCCC4)cc3n2-c2ccccc2)cc1C | 111
Nc1sc2c(c1C(=O)c1ccccn1)CCN(Cc1ccccc1)C2 | 67 to 71
CCOP(=O)(OCC)c1cccc(OCc2ccc3ccccc3c2)c1 | 55 to 57
CCc1c(O)cc(O)c(C(=O)c2ccc(OC)cc2)c1CC(=O)N(CCO)CCN1CCOCC1 | 235 to 237
Cc1ccc(Cn2nnc(C(N)=O)c2N)cc1C(Cl)=C(Cl)Cl | 196 to 197
COc1ccc(C(=O)N2c3ccccc3C(N3CCSc4ccccc43)=CC2C)cc1OC (stereo not given) | 166 to 168
CP(=O)(CCl)C1CCCCC1 (stereo not given) | 51 to 53
N#Cc1c(N)c2ccccc2[nH]c1=O | > 250
NC(=O)c1nnc2n1-c1sc(Cl)cc1C(c1ccccc1Cl)=NC2 | 248 to 251
CN(C)Cc1nc(-c2ncn3c2[C@@H]2CCN2C(=O)c2c-3ccc(F)c2Cl)no1 | 166 to 169
O=C1NC(=O)c2c(Cl)cccc21 | 236 to 238
O=c1cc2c3ccccc3sn2c2ccc(Cl)cc12 | > 350
CN(C)C(=O)c1cccn1N1C(=O)c2ccccc2C1=O | 153 to 155

Structure (SMILES) | melting point [°C]
N#CCOc1cccnc1N | 100 to 101
C=Cn1cc(C(N)=O)c([N+](=O)[O-])n1 | 150 to 152
CC(C(=O)O)=C(NC(=O)C(F)(F)F)c1ccccc1 | 140
O=c1cc(-c2ccccc2)oc2cc(OCCCCCCN3CCCCC3)cc(O)c12 | 103
COC(=O)C(O)C(NC(=O)OC(C)(C)C)C1CC1 (stereo not given) | 93
CCOC(=O)c1cc2cc(Cl)c(Cl)cc2[nH]1 | 215 to 218
COc1ccc(C2CN(C(C)=O)C(=O)O2)cc1OC (stereo not given) | 175 to 182
O=C(O)/C=C/c1cc(F)c2ncc(C(=O)NCc3ccc(Cl)cc3)c(O)c2c1 | 296 to 298
NC(=S)c1ncn2c1[C@@H]1CCCN1C(=O)c1c(Cl)cccc1-2 | 247 to 248
Clc1ccc(Oc2cncc3sc(-c4nnn[nH]4)cc23)cc1 | 250 to 254
CCCCc1nc(C(=O)O)c(Sc2ccc(OC)cc2)n1Cc1cc2c(cc1Cl)OCO2 | 82
C(#Cc1cccs1)C1=CCN(Cc2c[nH]c3ncccc23)CC1 | 191 to 193
CC(=O)C(C)(N=Nc1ccc(C(O)(C(F)(F)F)C(F)(F)F)cc1)C(N)=O (stereo not given) | 148 to 152
O=C(O)c1ccc(OCCCCCCCCCCO)cc1 | 115 to 117
CSc1c(C(=O)O)ccc(C)c1C | 118 to 120
COc1cc(Nc2nccc(Nc3cccc(CCO)c3)n2)cc(OC)c1OC | 72
OC1CSC(Oc2cccc(-c3ccncc3)n2)C(O)C1O (stereo not given) | 178
CC(C)N(C(=O)CN1C(=O)C(Cc2n[nH]c3ccccc23)C(=O)N(c2ccccc2)c2ccccc21)c1ccc(C(F)(F)F)cc1 (stereo not given) | 145 to 148
COc1ccc(I)cc1C(=O)O | 150 to 152

The remaining lines, values ahead:

melting point [°C] | Structure (SMILES)
105 to 106 | CCOC(=O)c1nc(C=Cc2ccc(Cl)cc2)oc1C
238 to 239 | CCCc1nc2ccccc2n1Cc1ccc(-c2ncccc2C(=O)O)cc1
49 | C=C(COC(=O)CCCCCCBr)COC(=O)NCCCCCCCCCCCCCCCCCC
204 | CC(Oc1ccc(N(C)c2cnc3cc(Cl)ccc3n2)cc1)C(=O)O (stereo not given)
60 | COC(=O)c1ccc(NC(C)=O)c(CO)c1
183 | Cc1ccc2c([nH]c3c(C(=O)N4CCOCC4)cccc32)c1C
153 to 156 | CON1CCC(C#N)(N(O)C(=O)Cc2cc(C)ccc2C)CC1
154 to 156 | O=C(O)C(=O)CC(=O)c1cccn1Cc1cc(F)c(F)cc1F
245 to 247 | COc1cc2nc(N)nc(-c3ccc(O)cc3Cl)c2cc1OC
72 to 74 | Cc1cc(C(=CC(=O)c2ccc(Cl)cc2)C(F)(F)F)ccc1NC(=O)OC(C)(C)C
120 to 124 | Cc1ccc(-n2c(=O)c3c(N4CCNCC4)cc(Cl)cc3n(Cc3ccccc3)c2=O)cc1
60 to 62 | OC1CN(CCCOCCc2ccc3sccc3c2)C1
117 | CN(C)NC(=O)N(OCc1ccccc1)C1c2ccccc2Oc2ccccc21
178 to 179 | CC(C)(C)OC(=O)N1CC(CCl)c2c1cc(OCc1ccccc1)c1ncccc21 (stereo not given)
37 to 41 | CCC1(COC(=O)C(C)(C)C)COC(=O)C(CC)(CC)N1 (stereo not given)
232 | CC(C)n1nc(-c2c(OCCN3C(=O)c4ccccc4C3=O)nc(N)nc2-c2ccccc2)ccc1=O
87 | CC(NC(=S)NCC(COC(=O)C(C)(C)C)Cc1ccc(C(C)(C)C)cc1)c1ccc(NS(C)(=O)=O)cc1 (stereo not given)
78 | CCCOc1cc(C2(C)CNC(=O)O2)ccc1OC (stereo not given)
146 to 147 | COCCNC(=O)c1cccc(-c2cccc3c2nc(Oc2cccc(C(F)(F)F)c2)n3C)c1

melting point [°C] | Structure (SMILES)
203 to 206 | COc1ccc(-c2nnc3c4ccccc4c(CCl)nn23)cc1
223 to 224 | Cc1ccc(-c2nccc3c(CC(=O)O)cccc23)cc1
104 to 108 | N=C(N)COc1cccc(Cl)c1Cl
220 to 226 | Cc1ccnc(C(=O)n2cc(CC(=O)O)c3cc(C)ccc32)c1
188 to 189 | NC(=S)Nc1ccc(Br)cc1
185 to 187 | O=C1CC(O)CC(C=Cc2c3c(nn2-c2ccc(F)cc2)C(Cc2ccccc2)CCC3)O1 (racemic)
173 | CCOc1cc(C)cc2cc(C#N)c(=O)oc12
270 to 272 | Cc1cc(-c2cc3c(cc2F)c(=O)c(C(=O)O)cn3C2CC2)cc(CO)n1
275 to 277 | CCN(CC)C1=NC(=O)C(=Cc2cccc(-c3ccc(O)c(C45CC6CC(CC(C6)C4)C5)c3)c2)S1
105 to 106 | CCc1ccc(Nc2c(F)c(F)cc(F)c2F)c(CC(=O)N(C)C)c1
140 to 143 | CC(C)CNc1cccnc1N1CCN(C(=O)c2ccc(C(=O)NC(C)(C)CO)cn2)CC1
149 to 151 | COc1ccc2cc([C@H](C)C(=O)NNC(=O)CCCO)ccc2c1
94 | O=C(CCCl)Nc1ccc(F)c(Cl)c1
110 to 111 | COc1ccc(C(=O)Cc2ccc3c(c2)OCO3)cc1OC
215 to 216 | Nc1ccccc1NC(=O)c1cc2cc(OCCO)ccc2s1
136 to 138 | CC(C)n1nc(-c2sc(NC(=O)c3ccc(CN4CCCCC4)cc3)nc2-c2ccccc2)ccc1=O
170 | CCC1c2nc[nH]c2CCN1C(=O)NC(C)C (stereo not given)
175 to 176 | Nc1cc(Br)cc(Br)c1O
